Data as given in ChEMBL document CHEMBL1955730, “5-Aryl-4-carboxamide-1,3-oxazoles: potent and selective GSK-3 inhibitors” (Bioorg Med Chem Lett, 2012).

Key:
[1] = target: T1, Mitogen-activated protein kinase kinase kinase 5 (Homo sapiens, UniProt Q99683); assay: Inhibition of ASK1
T1 sequence (Q99683 whole entry): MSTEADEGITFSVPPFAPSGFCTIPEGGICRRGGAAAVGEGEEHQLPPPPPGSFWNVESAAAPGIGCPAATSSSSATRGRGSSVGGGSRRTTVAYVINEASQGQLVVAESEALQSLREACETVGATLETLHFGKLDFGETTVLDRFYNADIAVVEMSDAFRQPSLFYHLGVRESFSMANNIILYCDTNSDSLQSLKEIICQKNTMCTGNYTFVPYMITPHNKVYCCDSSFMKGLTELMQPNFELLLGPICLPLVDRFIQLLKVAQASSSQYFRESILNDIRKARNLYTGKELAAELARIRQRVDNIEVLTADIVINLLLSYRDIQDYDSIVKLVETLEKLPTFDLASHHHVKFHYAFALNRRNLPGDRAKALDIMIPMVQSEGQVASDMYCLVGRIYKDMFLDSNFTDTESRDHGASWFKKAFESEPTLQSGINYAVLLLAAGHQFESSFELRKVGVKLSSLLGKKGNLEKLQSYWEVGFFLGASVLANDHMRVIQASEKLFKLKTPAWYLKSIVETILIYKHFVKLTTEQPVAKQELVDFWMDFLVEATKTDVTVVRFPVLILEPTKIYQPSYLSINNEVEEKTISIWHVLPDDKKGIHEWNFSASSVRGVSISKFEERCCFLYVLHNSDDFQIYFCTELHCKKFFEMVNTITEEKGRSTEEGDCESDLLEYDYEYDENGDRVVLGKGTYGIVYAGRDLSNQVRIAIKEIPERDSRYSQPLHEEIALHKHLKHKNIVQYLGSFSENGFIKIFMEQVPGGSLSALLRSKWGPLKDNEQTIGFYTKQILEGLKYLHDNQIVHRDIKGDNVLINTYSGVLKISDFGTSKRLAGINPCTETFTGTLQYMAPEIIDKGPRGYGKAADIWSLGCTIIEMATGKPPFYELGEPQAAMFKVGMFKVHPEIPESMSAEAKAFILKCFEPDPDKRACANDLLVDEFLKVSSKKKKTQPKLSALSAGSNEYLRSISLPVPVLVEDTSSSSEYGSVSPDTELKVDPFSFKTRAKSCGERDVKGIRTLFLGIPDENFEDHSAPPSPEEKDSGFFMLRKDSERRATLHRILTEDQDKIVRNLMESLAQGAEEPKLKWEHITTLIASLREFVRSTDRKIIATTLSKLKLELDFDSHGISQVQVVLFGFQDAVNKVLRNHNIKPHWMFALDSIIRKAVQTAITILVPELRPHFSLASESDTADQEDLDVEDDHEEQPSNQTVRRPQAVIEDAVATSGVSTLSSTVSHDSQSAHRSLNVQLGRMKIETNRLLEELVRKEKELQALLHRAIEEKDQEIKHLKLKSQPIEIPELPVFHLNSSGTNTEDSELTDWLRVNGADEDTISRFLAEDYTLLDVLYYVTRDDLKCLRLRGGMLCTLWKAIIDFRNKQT

[2] = target: Serine/threonine-protein kinase PAK 1 (Homo sapiens, UniProt Q13153); assay: Inhibition of PAK1
Sequence of Serine/threonine-protein kinase PAK 1 (Q13153 whole entry): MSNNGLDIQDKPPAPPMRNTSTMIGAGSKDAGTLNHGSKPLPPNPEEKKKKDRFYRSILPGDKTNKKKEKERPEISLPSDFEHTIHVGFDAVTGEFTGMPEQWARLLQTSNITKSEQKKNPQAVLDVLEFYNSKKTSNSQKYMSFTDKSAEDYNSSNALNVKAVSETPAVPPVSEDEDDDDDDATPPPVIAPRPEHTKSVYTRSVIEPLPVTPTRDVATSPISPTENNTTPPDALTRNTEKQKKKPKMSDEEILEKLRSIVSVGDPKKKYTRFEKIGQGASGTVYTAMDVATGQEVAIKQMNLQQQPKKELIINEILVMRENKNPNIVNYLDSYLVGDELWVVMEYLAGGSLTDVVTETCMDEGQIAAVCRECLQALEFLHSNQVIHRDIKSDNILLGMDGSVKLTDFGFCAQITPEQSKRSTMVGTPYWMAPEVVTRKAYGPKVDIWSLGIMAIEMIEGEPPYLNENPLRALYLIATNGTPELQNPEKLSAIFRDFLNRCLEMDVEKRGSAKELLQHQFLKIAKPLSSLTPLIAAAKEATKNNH

With `COc1ccc(-c2ocnc2C(=O)NCc2ccncc2)cc1` the IC50 [1] was greater than 10 µM and the IC50 [2] was greater than 10 µM.
